We go through 18 molecules from patent US12441726B2, “Compounds and uses thereof” (Foghorn Therapeutics Inc., priority 2020, dated 2025).

SMILES strings stand for the structures. pIC50: −log10 of the molar value.

One assay deals with BRG-1 (Homo sapiens, UniProt P51532). As to the kind of experiment: ATPase catalytic activity assay (ADP-Glo), BRG-1.
Sequence of BRG-1 (P51532 whole entry): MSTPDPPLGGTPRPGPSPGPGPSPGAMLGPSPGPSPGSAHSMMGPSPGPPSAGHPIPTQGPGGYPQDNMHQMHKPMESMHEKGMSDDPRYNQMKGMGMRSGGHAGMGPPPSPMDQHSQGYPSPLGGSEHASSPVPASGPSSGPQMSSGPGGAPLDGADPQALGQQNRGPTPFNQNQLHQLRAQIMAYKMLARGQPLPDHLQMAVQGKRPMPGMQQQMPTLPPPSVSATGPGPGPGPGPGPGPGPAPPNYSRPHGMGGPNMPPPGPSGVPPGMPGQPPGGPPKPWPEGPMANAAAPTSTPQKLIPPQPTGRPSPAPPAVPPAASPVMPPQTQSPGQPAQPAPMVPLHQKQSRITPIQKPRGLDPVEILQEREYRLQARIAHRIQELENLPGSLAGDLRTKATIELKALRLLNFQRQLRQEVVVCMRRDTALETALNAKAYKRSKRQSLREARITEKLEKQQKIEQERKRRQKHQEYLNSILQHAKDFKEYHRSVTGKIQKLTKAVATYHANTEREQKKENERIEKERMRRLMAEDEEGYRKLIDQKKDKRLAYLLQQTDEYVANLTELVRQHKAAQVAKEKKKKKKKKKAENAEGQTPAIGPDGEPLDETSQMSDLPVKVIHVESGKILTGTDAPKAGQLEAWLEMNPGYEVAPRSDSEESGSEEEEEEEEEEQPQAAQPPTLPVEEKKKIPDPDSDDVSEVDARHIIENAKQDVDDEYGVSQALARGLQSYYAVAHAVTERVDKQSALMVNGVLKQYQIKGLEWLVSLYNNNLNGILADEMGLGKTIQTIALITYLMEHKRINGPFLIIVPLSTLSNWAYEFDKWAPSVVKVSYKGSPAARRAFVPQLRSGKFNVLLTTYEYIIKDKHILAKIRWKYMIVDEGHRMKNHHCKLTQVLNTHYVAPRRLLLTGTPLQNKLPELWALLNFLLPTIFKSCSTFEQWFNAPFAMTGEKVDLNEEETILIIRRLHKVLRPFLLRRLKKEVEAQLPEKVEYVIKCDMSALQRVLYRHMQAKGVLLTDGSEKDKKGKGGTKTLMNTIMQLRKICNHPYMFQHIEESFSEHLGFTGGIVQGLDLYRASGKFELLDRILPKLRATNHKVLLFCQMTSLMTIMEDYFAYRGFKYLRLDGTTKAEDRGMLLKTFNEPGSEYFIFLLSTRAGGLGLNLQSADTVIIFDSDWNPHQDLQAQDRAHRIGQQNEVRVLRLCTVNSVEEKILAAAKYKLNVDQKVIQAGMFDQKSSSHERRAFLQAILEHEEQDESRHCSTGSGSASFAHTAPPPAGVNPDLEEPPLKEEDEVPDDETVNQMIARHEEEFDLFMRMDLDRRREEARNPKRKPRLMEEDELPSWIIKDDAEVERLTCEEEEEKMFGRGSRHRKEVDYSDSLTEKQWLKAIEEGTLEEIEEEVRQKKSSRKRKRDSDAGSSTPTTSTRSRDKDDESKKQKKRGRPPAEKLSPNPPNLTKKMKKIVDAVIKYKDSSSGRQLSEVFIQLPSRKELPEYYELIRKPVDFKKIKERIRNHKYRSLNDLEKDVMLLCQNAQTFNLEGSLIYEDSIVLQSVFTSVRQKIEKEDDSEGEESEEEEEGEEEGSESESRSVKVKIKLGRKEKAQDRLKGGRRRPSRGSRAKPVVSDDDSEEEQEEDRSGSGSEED
Conditions: not given
Broadly, the pIC50 is −log10 of the IC50, conventionally taken in molar units. For `Cn1cccc(-c2ccc3cnc(CNC(=O)c4ccc5c(c4)[C@](C)(C#N)COC5)cc3n2)c1=O` [Compound 510], the pIC50 is < 6.00.
The same measure, in the same setting: for `C[C@@]1(C#N)COCc2ccc(C(=O)NCc3cc(N4CCc5ccccc5C4)ccn3)cc21` [Compound 28] the value was 6.00 to 6.30.
Same read-out and setting: for `C[C@@]1(C#N)COCc2ccc(C(=O)NCc3cc(N4CC5(CN(c6ccccc6)C5)C4)ccn3)cc21` [Compound 10] the value was < 6.00.
On the same count and under the same terms, under `CN(C)c1cccc(-c2ccc3cnc(CNC(=O)c4cc(F)c5c(c4)[C@](F)(C(F)F)COC5)cc3n2)n1` [Compound 226] stands 6.30 to 7.00.
`COc1nccc(-c2ccc3cnc(CNC(=O)c4ccc5c(c4)[C@](C)(C#N)COC5)cc3n2)c1F` [Compound 432] had a pIC50 of 6.30 to 7.00.
On the same count and under the same terms, for `C[C@@]1(C#N)COCc2ccc(C(=O)NCc3cc(N4CC(c5ccccc5)C4)cnn3)cc21` [Compound 46] the value was < 6.00; for `C[C@@]1(C#N)COCc2ccc(C(=O)NCc3cc(OCc4ccccc4)ccn3)cc21` [Compound 6], < 6.00.
For the molecule `C[C@@]1(C#N)COCc2ccc(C(=O)NCc3cc4nc(-c5ccccn5)ccc4cn3)cc21` [Compound 102], the pIC50 was < 6.00.
On the same count and under the same terms, under `COCCOCCNC(=O)c1cccc(-c2ccc3cnc(CNC(=O)c4ccc5c(c4)[C@](C)(C#N)COC5)cc3n2)c1` [Compound 316] stands < 6.00.
On the same count and under the same terms, for `Cn1ncc2cc(-c3ccc4cnc(CNC(=O)c5ccc6c(c5)[C@](C)(C#N)COC6)cc4n3)ccc21` [Compound 105] the value was 6.00 to 6.30; for `COc1cc(-c2ccc3cnc(CNC(=O)c4ccc5c(c4)[C@](C)(C#N)COC5)cc3n2)c(F)cn1` [Compound 446], < 6.00; for `COc1cc(F)cc2c1CCN(c1ccnc(CNC(=O)c3ccc4c(c3)[C@](C)(C#N)COC4)c1)C2` [Compound 51], 6.30 to 7.00.
Still for that read-out and setting: for `COc1cccc([C@H]2C[C@@H](c3ccnc(CNC(=O)c4ccc5c(c4)[C@](C)(C#N)COC5)c3)C2)c1` [Compound 71] the value was < 6.00; for `Cn1ccc(-c2ccc3cnc(CNC(=O)c4ccc5c(c4)[C@](C)(C#N)COC5)cc3n2)n1` [Compound 113], < 6.00.
On to `COc1cc(C)ccc1-c1ccc2cnc(CNC(=O)c3ccc4c(c3)[C@](C)(C#N)COC4)cc2n1` [Compound 144], for which the pIC50 was 6.30 to 7.00.
The same measure, in the same setting: for `C[C@@]1(C#N)COCc2ccc(C(=O)NCc3cc4nc(-c5cnn(C6COC6)c5)ccc4cn3)cc21` [Compound 513] the value was < 6.00.
Same read-out and setting: under `COC1(c2cccc(-c3ccc4cnc(CNC(=O)c5ccc6c(c5)[C@](C)(C#N)COC6)cc4n3)n2)COC1` [Compound 419] stands 6.00 to 6.30.
`CC(C)(O)c1cccc(-c2ccc3cnc(CNC(=O)c4ccc5c(c4)[C@](C)(C#N)COC5)cc3n2)n1` [Compound 410] gave a negative-log IC50 (pIC50) of 6.00 to 6.30.

The assay is the same for the next values; noted with them: 1 h, read-out: BRG1 Max % Inhibition, ADP-Glo, 30 nM BRG-1, 400 μM ATP.
Take `Cn1cccc(-c2ccc3cnc(CNC(=O)c4ccc5c(c4)[C@](C)(C#N)COC5)cc3n2)c1=O` [Compound 510]: the Emax worked out at 64%.
The same measure, in the same setting: under `C[C@@]1(C#N)COCc2ccc(C(=O)NCc3cc(N4CCc5ccccc5C4)ccn3)cc21` [Compound 28] stands 86%; under `C[C@@]1(C#N)COCc2ccc(C(=O)NCc3cc(N4CC5(CN(c6ccccc6)C5)C4)ccn3)cc21` [Compound 10], 30%.
Same read-out and setting: under `CN(C)c1cccc(-c2ccc3cnc(CNC(=O)c4cc(F)c5c(c4)[C@](F)(C(F)F)COC5)cc3n2)n1` [Compound 226] stands 85%; under `COc1nccc(-c2ccc3cnc(CNC(=O)c4ccc5c(c4)[C@](C)(C#N)COC5)cc3n2)c1F` [Compound 432], 88%.
Regarding `C[C@@]1(C#N)COCc2ccc(C(=O)NCc3cc(N4CC(c5ccccc5)C4)cnn3)cc21` [Compound 46], the Emax came out at 29%.
The same measure, in the same setting: under `C[C@@]1(C#N)COCc2ccc(C(=O)NCc3cc(OCc4ccccc4)ccn3)cc21` [Compound 6] stands 44%; under `C[C@@]1(C#N)COCc2ccc(C(=O)NCc3cc4nc(-c5ccccn5)ccc4cn3)cc21` [Compound 102], 56%; under `COCCOCCNC(=O)c1cccc(-c2ccc3cnc(CNC(=O)c4ccc5c(c4)[C@](C)(C#N)COC5)cc3n2)c1` [Compound 316], 92%.
Same read-out and setting: under `Cn1ncc2cc(-c3ccc4cnc(CNC(=O)c5ccc6c(c5)[C@](C)(C#N)COC6)cc4n3)ccc21` [Compound 105] stands 87%; under `COc1cc(-c2ccc3cnc(CNC(=O)c4ccc5c(c4)[C@](C)(C#N)COC5)cc3n2)c(F)cn1` [Compound 446], 44%.
Same read-out and setting: for `COc1cc(F)cc2c1CCN(c1ccnc(CNC(=O)c3ccc4c(c3)[C@](C)(C#N)COC4)c1)C2` [Compound 51] the value was 94%; for `COc1cccc([C@H]2C[C@@H](c3ccnc(CNC(=O)c4ccc5c(c4)[C@](C)(C#N)COC5)c3)C2)c1` [Compound 71], 42%; for `Cn1ccc(-c2ccc3cnc(CNC(=O)c4ccc5c(c4)[C@](C)(C#N)COC5)cc3n2)n1` [Compound 113], 32%.
Regarding `COc1cc(C)ccc1-c1ccc2cnc(CNC(=O)c3ccc4c(c3)[C@](C)(C#N)COC4)cc2n1` [Compound 144], the Emax was 95%.
Still for that read-out and setting: under `C[C@@]1(C#N)COCc2ccc(C(=O)NCc3cc4nc(-c5cnn(C6COC6)c5)ccc4cn3)cc21` [Compound 513] stands 36%; under `COC1(c2cccc(-c3ccc4cnc(CNC(=O)c5ccc6c(c5)[C@](C)(C#N)COC6)cc4n3)n2)COC1` [Compound 419], 64%; under `CC(C)(O)c1cccc(-c2ccc3cnc(CNC(=O)c4ccc5c(c4)[C@](C)(C#N)COC5)cc3n2)n1` [Compound 410], 75%.

Another assay deals with BRM (Homo sapiens, UniProt P51531). In words: ATPase catalytic activity assay (ADP-Glo), BRM. The following applies: 30 nM BRM, 400 μM ATP. For orientation: ADP-Glo first removes unused ATP, then detects ADP through luciferase.
Sequence of BRM (P51531 whole entry): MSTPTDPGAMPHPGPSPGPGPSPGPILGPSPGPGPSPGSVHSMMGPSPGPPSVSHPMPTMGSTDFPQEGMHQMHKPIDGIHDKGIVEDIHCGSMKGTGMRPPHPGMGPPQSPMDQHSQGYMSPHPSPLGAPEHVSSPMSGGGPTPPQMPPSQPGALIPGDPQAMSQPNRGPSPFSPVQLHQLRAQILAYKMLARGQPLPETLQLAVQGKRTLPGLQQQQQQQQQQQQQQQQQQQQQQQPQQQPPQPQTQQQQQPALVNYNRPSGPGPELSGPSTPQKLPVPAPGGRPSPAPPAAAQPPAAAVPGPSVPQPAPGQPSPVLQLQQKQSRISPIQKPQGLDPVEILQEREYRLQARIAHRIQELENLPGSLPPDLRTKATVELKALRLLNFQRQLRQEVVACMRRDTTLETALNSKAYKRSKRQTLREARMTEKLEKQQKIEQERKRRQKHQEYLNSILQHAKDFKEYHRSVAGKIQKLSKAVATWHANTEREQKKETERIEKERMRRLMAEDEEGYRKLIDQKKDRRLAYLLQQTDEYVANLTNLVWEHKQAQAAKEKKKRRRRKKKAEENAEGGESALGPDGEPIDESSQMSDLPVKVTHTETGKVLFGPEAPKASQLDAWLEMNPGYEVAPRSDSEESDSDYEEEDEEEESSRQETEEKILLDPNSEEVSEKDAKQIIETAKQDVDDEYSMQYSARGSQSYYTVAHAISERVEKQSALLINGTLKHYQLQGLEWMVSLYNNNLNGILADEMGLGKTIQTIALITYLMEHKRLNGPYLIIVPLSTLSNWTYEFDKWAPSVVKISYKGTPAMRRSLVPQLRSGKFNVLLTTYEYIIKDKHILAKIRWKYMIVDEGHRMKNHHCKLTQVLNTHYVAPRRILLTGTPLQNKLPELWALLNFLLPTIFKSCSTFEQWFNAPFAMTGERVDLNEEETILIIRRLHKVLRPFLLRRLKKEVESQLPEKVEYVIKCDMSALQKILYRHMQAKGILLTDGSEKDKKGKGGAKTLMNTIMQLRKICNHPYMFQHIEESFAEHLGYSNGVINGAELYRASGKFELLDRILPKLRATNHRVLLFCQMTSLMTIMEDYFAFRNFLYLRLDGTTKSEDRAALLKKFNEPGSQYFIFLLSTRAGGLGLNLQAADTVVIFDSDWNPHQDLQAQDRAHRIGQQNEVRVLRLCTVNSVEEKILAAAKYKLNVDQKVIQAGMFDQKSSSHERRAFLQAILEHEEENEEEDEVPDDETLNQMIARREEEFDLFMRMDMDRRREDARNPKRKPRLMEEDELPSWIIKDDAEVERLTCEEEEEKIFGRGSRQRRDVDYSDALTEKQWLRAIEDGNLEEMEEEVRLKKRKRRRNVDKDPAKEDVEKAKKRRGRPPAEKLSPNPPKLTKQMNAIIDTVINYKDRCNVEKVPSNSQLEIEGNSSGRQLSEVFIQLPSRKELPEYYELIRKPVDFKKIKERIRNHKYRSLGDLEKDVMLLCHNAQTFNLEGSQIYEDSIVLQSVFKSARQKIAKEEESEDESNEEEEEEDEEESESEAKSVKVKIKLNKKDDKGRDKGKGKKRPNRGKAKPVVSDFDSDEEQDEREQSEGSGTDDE
With `Cn1cccc(-c2ccc3cnc(CNC(=O)c4ccc5c(c4)[C@](C)(C#N)COC5)cc3n2)c1=O` [Compound 510], the “BRM Max % Inhibition” value is 89%.
As to `C[C@@]1(C#N)COCc2ccc(C(=O)NCc3cc(N4CCc5ccccc5C4)ccn3)cc21` [Compound 28], the “BRM Max % Inhibition” value stood at 98%.
Regarding `C[C@@]1(C#N)COCc2ccc(C(=O)NCc3cc(N4CC5(CN(c6ccccc6)C5)C4)ccn3)cc21` [Compound 10], the “BRM Max % Inhibition” value is 71%.
Turning to `CN(C)c1cccc(-c2ccc3cnc(CNC(=O)c4cc(F)c5c(c4)[C@](F)(C(F)F)COC5)cc3n2)n1` [Compound 226], the “BRM Max % Inhibition” value is reported as 98%.
The same measure, in the same setting: for `COc1nccc(-c2ccc3cnc(CNC(=O)c4ccc5c(c4)[C@](C)(C#N)COC5)cc3n2)c1F` [Compound 432] the value was 98%; for `C[C@@]1(C#N)COCc2ccc(C(=O)NCc3cc(N4CC(c5ccccc5)C4)cnn3)cc21` [Compound 46], 78%; for `C[C@@]1(C#N)COCc2ccc(C(=O)NCc3cc(OCc4ccccc4)ccn3)cc21` [Compound 6], 95%.
As for `C[C@@]1(C#N)COCc2ccc(C(=O)NCc3cc4nc(-c5ccccn5)ccc4cn3)cc21` [Compound 102], the “BRM Max % Inhibition” value was determined as 93%.
Still for that read-out and setting: for `COCCOCCNC(=O)c1cccc(-c2ccc3cnc(CNC(=O)c4ccc5c(c4)[C@](C)(C#N)COC5)cc3n2)c1` [Compound 316] the value was 98%; for `Cn1ncc2cc(-c3ccc4cnc(CNC(=O)c5ccc6c(c5)[C@](C)(C#N)COC6)cc4n3)ccc21` [Compound 105], 98%.
As to `COc1cc(-c2ccc3cnc(CNC(=O)c4ccc5c(c4)[C@](C)(C#N)COC5)cc3n2)c(F)cn1` [Compound 446], the “BRM Max % Inhibition” value is recorded as 87%.
The same measure, in the same setting: for `COc1cc(F)cc2c1CCN(c1ccnc(CNC(=O)c3ccc4c(c3)[C@](C)(C#N)COC4)c1)C2` [Compound 51] the value was 99%; for `COc1cccc([C@H]2C[C@@H](c3ccnc(CNC(=O)c4ccc5c(c4)[C@](C)(C#N)COC5)c3)C2)c1` [Compound 71], 89%.
The same measure, in the same setting: for `Cn1ccc(-c2ccc3cnc(CNC(=O)c4ccc5c(c4)[C@](C)(C#N)COC5)cc3n2)n1` [Compound 113] the value was 79%.
The same measure, in the same setting: under `COc1cc(C)ccc1-c1ccc2cnc(CNC(=O)c3ccc4c(c3)[C@](C)(C#N)COC4)cc2n1` [Compound 144] stands 102%.
On to `C[C@@]1(C#N)COCc2ccc(C(=O)NCc3cc4nc(-c5cnn(C6COC6)c5)ccc4cn3)cc21` [Compound 513], for which the “BRM Max % Inhibition” value amounted to 87%.
Still for that read-out and setting: for `COC1(c2cccc(-c3ccc4cnc(CNC(=O)c5ccc6c(c5)[C@](C)(C#N)COC6)cc4n3)n2)COC1` [Compound 419] the value was 93%; for `CC(C)(O)c1cccc(-c2ccc3cnc(CNC(=O)c4ccc5c(c4)[C@](C)(C#N)COC5)cc3n2)n1` [Compound 410], 93%.

The same assay, now with this note: BRM ATPase: IC50 (uM), 30 nM BRM, 400 μM ATP.
Usually IC50 stands for the concentration at which inhibition is half-maximal. Lower therefore signals greater potency. `Cn1cccc(-c2ccc3cnc(CNC(=O)c4ccc5c(c4)[C@](C)(C#N)COC5)cc3n2)c1=O` [Compound 510] showed an IC50 of 0.1 to 0.5 µM.
The same measure, in the same setting: for `C[C@@]1(C#N)COCc2ccc(C(=O)NCc3cc(N4CCc5ccccc5C4)ccn3)cc21` [Compound 28] the value was < 0.1 µM; for `C[C@@]1(C#N)COCc2ccc(C(=O)NCc3cc(N4CC5(CN(c6ccccc6)C5)C4)ccn3)cc21` [Compound 10], > 1 µM; for `CN(C)c1cccc(-c2ccc3cnc(CNC(=O)c4cc(F)c5c(c4)[C@](F)(C(F)F)COC5)cc3n2)n1` [Compound 226], 0.1 to 0.5 µM.
Still for that read-out and setting: for `COc1nccc(-c2ccc3cnc(CNC(=O)c4ccc5c(c4)[C@](C)(C#N)COC5)cc3n2)c1F` [Compound 432] the value was < 0.1 µM; for `C[C@@]1(C#N)COCc2ccc(C(=O)NCc3cc(N4CC(c5ccccc5)C4)cnn3)cc21` [Compound 46], > 1 µM; for `C[C@@]1(C#N)COCc2ccc(C(=O)NCc3cc(OCc4ccccc4)ccn3)cc21` [Compound 6], 0.1 to 0.5 µM.
Molecule `C[C@@]1(C#N)COCc2ccc(C(=O)NCc3cc4nc(-c5ccccn5)ccc4cn3)cc21` [Compound 102] gave an IC50 of 0.1 to 0.5 µM.
On the same count and under the same terms, for `COCCOCCNC(=O)c1cccc(-c2ccc3cnc(CNC(=O)c4ccc5c(c4)[C@](C)(C#N)COC5)cc3n2)c1` [Compound 316] the value was 0.1 to 0.5 µM; for `Cn1ncc2cc(-c3ccc4cnc(CNC(=O)c5ccc6c(c5)[C@](C)(C#N)COC6)cc4n3)ccc21` [Compound 105], < 0.1 µM.
Still for that read-out and setting: under `COc1cc(-c2ccc3cnc(CNC(=O)c4ccc5c(c4)[C@](C)(C#N)COC5)cc3n2)c(F)cn1` [Compound 446] stands 0.1 to 0.5 µM; under `COc1cc(F)cc2c1CCN(c1ccnc(CNC(=O)c3ccc4c(c3)[C@](C)(C#N)COC4)c1)C2` [Compound 51], < 0.1 µM.
Same read-out and setting: for `COc1cccc([C@H]2C[C@@H](c3ccnc(CNC(=O)c4ccc5c(c4)[C@](C)(C#N)COC5)c3)C2)c1` [Compound 71] the value was 0.1 to 0.5 µM; for `Cn1ccc(-c2ccc3cnc(CNC(=O)c4ccc5c(c4)[C@](C)(C#N)COC5)cc3n2)n1` [Compound 113], > 1 µM.
Consider `COc1cc(C)ccc1-c1ccc2cnc(CNC(=O)c3ccc4c(c3)[C@](C)(C#N)COC4)cc2n1` [Compound 144], for which the IC50 was < 0.1 µM.
Same read-out and setting: for `C[C@@]1(C#N)COCc2ccc(C(=O)NCc3cc4nc(-c5cnn(C6COC6)c5)ccc4cn3)cc21` [Compound 513] the value was 0.1 to 0.5 µM.
The molecule `COC1(c2cccc(-c3ccc4cnc(CNC(=O)c5ccc6c(c5)[C@](C)(C#N)COC6)cc4n3)n2)COC1` [Compound 419] showed a half-maximal inhibitory concentration (IC50) of 0.1 to 0.5 µM.
`CC(C)(O)c1cccc(-c2ccc3cnc(CNC(=O)c4ccc5c(c4)[C@](C)(C#N)COC5)cc3n2)n1` [Compound 410] registered an IC50 of 0.1 to 0.5 µM.
